PubChem BioAssay (NCI)
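Values below derive from 48-hour exposures of cells grown in 96-well plates, with endpoints linearly interpolated between the two concentrations bracketing the appropriate inhibition level. TGI denotes the concentration required for complete inhibition of growth.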

What was measured:
Experiment in all cases: DTP human tumour cell line panel, 48 h
[1] = system: NCI-H23 lung
[2] = system: SR leukemia
[3] = system: SK-MEL-28 melanoma
[4] = system: DU-145 prostate
[5] = system: IGROV1 ovarian
[6] = system: SN12C renal
[7] = system: MALME-3M melanoma
[8] = system: HL-60(TB) leukemia
[9] = system: U251 CNS
[10] = system: EKVX NSCLC
[11] = system: SK-MEL-5 melanoma
[12] = system: 786-0 renal
[13] = system: ACHN renal
[14] = system: RXF 393 renal
[15] = system: OVCAR-4 ovarian
[16] = system: SK-OV-3 ovarian
[17] = system: SW-620 colon
[18] = system: HCT-116 colon
[19] = system: OVCAR-5 ovarian
[20] = system: T-47D breast
[21] = system: LOX IMVI melanoma
[22] = system: UACC-62 melanoma
[23] = system: SF-539 CNS
[24] = system: M14 melanoma
[25] = system: MDA-MB-435
[26] = system: HOP-62 NSCLC
[27] = system: SK-MEL-2 melanoma
[28] = system: KM12 colon
[29] = system: HCC-2998 colon
[30] = system: SF-268 CNS
[31] = system: HT29 colon
[32] = system: MOLT-4 leukemia
[33] = system: COLO 205 colon
[34] = system: SF-295 CNS
[35] = system: MDA-MB-231 breast
[36] = system: K-562 leukemia
[37] = system: NCI/ADR-RES ovarian
[38] = system: NCI-H460 lung
[39] = system: HOP-92 NSCLC
[40] = system: UO-31 renal
[41] = system: CCRF-CEM leukemia
[42] = system: NCI-H226 lung
[43] = system: SNB-19 CNS
[44] = system: OVCAR-3 ovarian
[45] = system: OVCAR-8 ovarian
[46] = system: SNB-75 CNS
[47] = system: TK-10 renal
[48] = system: A549 NSCLC
[49] = system: NCI-H522 lung
[50] = system: CAKI-1 renal
[51] = system: MDA-N
[52] = system: MCF7 breast
[53] = system: HCT-15 colon
[54] = system: A498 renal
[55] = system: UACC-257 melanoma
[56] = system: PC-3 prostate
[57] = system: BT-549 breast
[58] = system: RPMI-8226 leukemia

SMILES: c1ccc(P2c3ccccc3Nc3ccccc32)cc1
- TGI [1]: > 100 µM
- TGI [2]: 49.4 µM
- TGI [3]: > 100 µM
- TGI [4]: > 100 µM
- TGI [5]: > 100 µM
- TGI [6]: > 100 µM
- TGI [7]: > 100 µM
- TGI [8]: 55.8 µM
- TGI [9]: > 100 µM
- TGI [10]: > 100 µM
- TGI [11]: 82.5 µM
- TGI [12]: > 100 µM
- TGI [13]: > 100 µM
- TGI [14]: > 100 µM
- TGI [15]: > 100 µM
- TGI [16]: > 100 µM
- TGI [17]: > 100 µM
- TGI [18]: > 100 µM
- TGI [19]: > 100 µM
- TGI [20]: > 100 µM
- TGI [21]: > 100 µM
- TGI [22]: > 100 µM
- TGI [23]: > 100 µM
- TGI [24]: > 100 µM
- TGI [25]: > 100 µM
- TGI [26]: > 100 µM
- TGI [27]: > 100 µM
- TGI [28]: > 100 µM
- TGI [29]: > 100 µM
- TGI [30]: > 100 µM
- TGI [31]: > 100 µM
- TGI [32]: 58.7 µM
- TGI [33]: > 100 µM
- TGI [34]: > 100 µM
- TGI [35]: > 100 µM
- TGI [36]: > 100 µM
- TGI [37]: > 100 µM
- TGI [38]: > 100 µM
- TGI [39]: 97.4 µM
- TGI [40]: > 100 µM
- TGI [41]: 72 µM
- TGI [42]: > 100 µM
- TGI [43]: > 100 µM
- TGI [44]: 47.3 µM
- TGI [45]: > 100 µM
- TGI [46]: 71 µM
- TGI [47]: > 100 µM
- TGI [48]: > 100 µM
- TGI [49]: > 100 µM
- TGI [50]: > 100 µM
- TGI [51]: > 100 µM
- TGI [52]: > 100 µM
- TGI [53]: > 100 µM
- TGI [54]: 76.6 µM
- TGI [55]: > 100 µM
- TGI [56]: 87.1 µM

SMILES: CC(=O)OCc1cc(=O)n2c([nH]c3ccccc32)c1C#N
- TGI [1]: > 100 µM
- TGI [3]: > 100 µM
- TGI [4]: > 100 µM
- TGI [5]: > 100 µM
- TGI [6]: > 100 µM
- TGI [7]: > 100 µM
- TGI [8]: > 100 µM
- TGI [9]: > 100 µM
- TGI [10]: > 100 µM
- TGI [11]: > 100 µM
- TGI [12]: > 100 µM
- TGI [13]: > 100 µM
- TGI [14]: > 100 µM
- TGI [15]: 60.9 µM
- TGI [16]: > 100 µM
- TGI [17]: > 100 µM
- TGI [18]: > 100 µM
- TGI [19]: > 100 µM
- TGI [20]: > 100 µM
- TGI [21]: > 100 µM
- TGI [22]: > 100 µM
- TGI [23]: > 100 µM
- TGI [24]: > 100 µM
- TGI [27]: > 100 µM
- TGI [29]: > 100 µM
- TGI [31]: > 100 µM
- TGI [32]: > 100 µM
- TGI [33]: > 100 µM
- TGI [34]: > 100 µM
- TGI [35]: > 100 µM
- TGI [36]: > 100 µM
- TGI [37]: > 100 µM
- TGI [38]: 64.8 µM
- TGI [39]: > 100 µM
- TGI [40]: > 100 µM
- TGI [41]: > 100 µM
- TGI [57]: > 100 µM
- TGI [42]: > 100 µM
- TGI [43]: > 100 µM
- TGI [44]: > 100 µM
- TGI [45]: > 100 µM
- TGI [47]: > 100 µM
- TGI [48]: > 100 µM
- TGI [50]: > 100 µM
- TGI [51]: > 100 µM
- TGI [52]: > 100 µM
- TGI [53]: > 100 µM
- TGI [54]: > 100 µM
- TGI [55]: > 100 µM
- TGI [56]: > 100 µM

SMILES: CC(CO)CCC(O)C(C)(O)C1CCC2(O)C3=CC(=O)C4CC(O)C(O)CC4(C)C3CCC12C (stereo not given)
- TGI [1]: > 100 µM
- TGI [2]: > 100 µM
- TGI [3]: > 100 µM
- TGI [4]: > 100 µM
- TGI [6]: > 100 µM
- TGI [7]: > 100 µM
- TGI [8]: > 100 µM
- TGI [9]: > 100 µM
- TGI [58]: > 100 µM
- TGI [10]: > 100 µM
- TGI [11]: > 100 µM
- TGI [12]: > 100 µM
- TGI [13]: > 100 µM
- TGI [14]: > 100 µM
- TGI [15]: > 100 µM
- TGI [16]: > 100 µM
- TGI [17]: > 100 µM
- TGI [18]: > 100 µM
- TGI [19]: > 100 µM
- TGI [21]: > 100 µM
- TGI [22]: > 100 µM
- TGI [23]: > 100 µM
- TGI [24]: > 100 µM
- TGI [25]: > 100 µM
- TGI [26]: > 100 µM
- TGI [27]: > 100 µM
- TGI [28]: > 100 µM
- TGI [29]: > 100 µM
- TGI [31]: > 100 µM
- TGI [32]: > 100 µM
- TGI [33]: > 100 µM
- TGI [34]: > 100 µM
- TGI [35]: > 100 µM
- TGI [36]: > 100 µM
- TGI [37]: > 100 µM
- TGI [38]: > 100 µM
- TGI [39]: > 100 µM
- TGI [40]: > 100 µM
- TGI [41]: > 100 µM
- TGI [57]: > 100 µM
- TGI [42]: > 100 µM
- TGI [43]: > 100 µM
- TGI [44]: > 100 µM
- TGI [45]: > 100 µM
- TGI [46]: > 100 µM
- TGI [48]: > 100 µM
- TGI [49]: > 100 µM
- TGI [50]: > 100 µM
- TGI [51]: > 100 µM
- TGI [52]: > 100 µM
- TGI [53]: > 100 µM
- TGI [54]: > 100 µM
- TGI [55]: > 100 µM
- TGI [56]: > 100 µM
